Measured values: the NIST ThermoML archive (doi:10.1016/j.jct.2015.06.005)

Columns and labels:
[1] = refractive index (Na D-line) (dimensionless); xn = mol fraction of the nth substance listed; details: 100 kPa, Liquid, Standard Abbe refractometry, x1 = 1
[2] = xn = mol fraction of the nth substance listed; details: 100 kPa, Liquid, x1 = 1; for speed of sound: Frequency=3 MHz, Sing-around technique in a fixed-path interferometer; for mass density: Vibrating tube method
[3] = refractive index (Na D-line) (dimensionless); details: 100 kPa, Liquid, Standard Abbe refractometry
[4] = 100 kPa, Liquid; for speed of sound: Frequency=3 MHz, Sing-around technique in a fixed-path interferometer; for mass density: Vibrating tube method

CCCCn1cc[n+](C)c1.F[B-](F)(F)F [1-butyl-3-methylimidazolium tetrafluoroborate] + CCCCCCCCN1CCCC1=O
Details	mass density, [2] [kg/m3]	refractive index, [1]	speed of sound, [2] [m/s]
298.15 K	1198.78	1.42058	1565.1
303.15 K	1195.18	1.41913	1553.2
308.15 K	1191.6	1.41764	1541.3
313.15 K	1188.04	1.41621	1529.7
318.15 K	1184.5	1.41472	1518.2
323.15 K	1180.98	1.4133	1506.8

CCCCCCCCN1CCCC1=O [N-octyl-2-pyrrolidone]
Details	mass density, [4] [kg/m3]	refractive index, [3]	speed of sound, [4] [m/s]
298.15 K	918.45	1.46346	1450.2
303.15 K	914.8	1.46152	1432.6
308.15 K	911.14	1.45955	1415.3
313.15 K	907.49	1.45761	1398
318.15 K	903.83	1.45564	1380.9
323.15 K	900.17	1.45367	1364
